The values that follow come from patent publication US11945806B2, “Stabilization of amyloidogenic immunoglobulin light chains” (The Scripps Research Institute, priority 2019, dated 2024).

In the assay the target is WIL-FL (Homo sapiens, UniProt P01721). The assay is described as follows: Unlabeled LC Protease Sensitivity Assay (proteinase K). Format: biochemical. The conditions noted are these: small molecule 10 μM, WIL-FL 5 μM, proteinase K 50 nM, 2 hours at 37° C. A digest of the protocol: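 Compound at 10 μM (1% DMSO) is mixed with 5 μM WIL-FL and 50 nM proteinase K in PBS pH 7.4/0.02% Pluronic F-127, 37 °C, 2 h, then quenched with PMSF. Remaining protein measured by SEC-UPLC peak area at 280 nm and expressed as fold protection relative to vehicle and no-protease controls.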
Turning to `Cc1cc(=O)oc2cc(N(CC3CC3)CC3CC3)ccc12` [Compound 245, 7-(bis(cyclopropylmethyl)amino)-4-methyl-2H-chromen-2-one], the “Protection (fold protection of LC from protease)” value is “A (A < 0.3))”. The same measure for `CCN(CC)c1ccc2c(C)c(CCC(=O)NCCc3ccc(F)cc3)c(=O)oc2c1` [Compound 73]: “A (A < 0.3))”; for `CCN(CC)c1ccc2c(C)c(CCOC(=O)NCc3cccc(-c4ncccn4)c3)c(=O)oc2c1` [Compound 155, 2-(7-(diethylamino)-4-methyl-2-oxo-2H-chromen-3-yl)ethyl (3-(pyrimidin-2-yl)benzyl)carbamate]: “C (C ≥ 0.6)”. For the molecule `CCN(CC)c1ccc2c(C)c(CCN3C(=O)NC4(CCN(c5ncccn5)C4)C3=O)c(=O)oc2c1` (stereo not drawn) [Compound 194, 3-(2-(7-(diethylamino)-4-methyl-2-oxo-2H-chromen-3-yl)ethyl)-7-(pyrimidin-2-yl)-1,3,7-triazaspiro[4.4]nonane-2,4-dione], the “Protection (fold protection of LC from protease)” value is “C (C ≥ 0.6)”. On to `Cc1cc(=O)oc2cc(NCc3ccoc3)ccc12` [Compound 29, 7-((furan-3-ylmethyl)amino)-4-methyl-2H-chromen-2-one], for which the “Protection (fold protection of LC from protease)” value is “A (A < 0.3))”.

Consider `CCN(CC)c1ccc2c(C)c(CCNC(=O)NCc3cccc(-c4ccccc4)c3)c(=O)oc2c1` [Compound 284, 1-([1,1′-biphenyl]-3-ylmethyl)-3-(2-(7-(diethylamino)-4-methyl-2-oxo-2H-chromen-3-yl)ethyl)urea], for which the “Protection (fold protection of LC from protease)” value is listed as “B (3 ≤ B < 0.6)”. The same measure for `CCN(CC)c1ccc2c(C)c(CCNC(=O)OC(C)(C)C)c(=O)oc2c1` [Compound 69, Tert-butyl (2-(7-(diethylamino)-4-methyl-2-oxo-2H-chromen-3-yl)ethyl)carbamate]: “A (A < 0.3))”; for `CCN(CC)c1ccc2c(C)c(CCNC(=O)NCc3ccc(-c4ccccc4)cc3)c(=O)oc2c1` [Compound 283, 1-([1,1′-biphenyl]-4-ylmethyl)-3-(2-(7-(diethylamino)-4-methyl-2-oxo-2H-chromen-3-yl)ethyl)urea]: “A (A < 0.3))”; for `CCN(CC)c1ccc2c(C)cc(=O)n(C)c2c1` [Compound 52, 7-(diethylamino)-1,4-dimethylquinolin-2(1H)-one]: “A (A < 0.3))”. Next, `CCN(CCF)c1ccc2c(C)cc(=O)oc2c1` [Compound 273, 7-(ethyl(2-fluoroethyl)amino)-4-methyl-2H-chromen-2-one]: “A (A < 0.3))”. Next, `Cc1cc(=O)oc2cc(OC(C)c3ccc(F)cc3)ccc12` (stereo not drawn) [Compound 44, 7-(1-(4-fluorophenyl)ethoxy)-4-methyl-2H-chromen-2-one]: “A (A < 0.3))”; `CCN(CC)c1ccc2c(C)cc(=O)[nH]c2c1` [Compound 25, 7-(diethylamino)-4-methylquinolin-2(1H)-one]: “A (A < 0.3))”. On to `CCN(CC)c1ccc2c(C)c(CCNC(=O)CCc3ccncc3)c(=O)oc2c1` [Compound 96, N-(2-(7-(diethylamino)-4-methyl-2-oxo-2H-chromen-3-yl)ethyl)-3-(pyridin-4-yl)propanamide], for which the “Protection (fold protection of LC from protease)” value was “A (A < 0.3))”. Next, `CCN(CC)c1ccc2c(C)c(CCNC(=O)NCc3ccccc3)c(=O)oc2c1` [Compound 278, 1-benzyl-3-(2-(7-(diethylamino)-4-methyl-2-oxo-2H-chromen-3-yl)ethyl)urea]: “C (C ≥ 0.6)”. The same measure for `CCN(CC)c1ccc2c(C)c(CCN3C(=O)NC4(CCN(C(=O)c5cncnc5)C4)C3=O)c(=O)oc2c1` (stereo not drawn) [Compound 209, 3-(2-(7-(diethylamino)-4-methyl-2-oxo-2H-chromen-3-yl)ethyl)-7-(pyrimidine-5-carbonyl)-1,3,7-triazaspiro[4.4]nonane-2,4-dione]: “B (3 ≤ B < 0.6)”.
